From patent EP1247803A2, “Indolinone compounds suitable for modulation of protein kinases” (Sugen, Inc., priority 1996, dated 1998)

Legend:
MET = MET biochemical kinase assay; design: species or system human; concentration or dose not given beside the values
How it was run: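 Human MET was captured from cell lysates onto ELISA plates via goat anti-rabbit Fc and rabbit polyclonal antibody to the MET cytoplasmic domain. After washing, test compounds and kinase buffer with ATP and divalent metal ions were added. Phosphotyrosine was detected with HRP-conjugated anti-phosphotyrosine antibody and TMB colorimetric read-out.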

EGFR = target: T1, EGFR (Homo sapiens, UniProt P00533); experiment: EGFR ELISA assay (in vitro kinase activity, EGFR captured from A431 cell lysate); format: biochemical; design: concentration or dose not given beside the values
T1 construct: Add 7 ug A431 cell lysate per well (EGFR source); endogenous in cells; host or cells: A431
T1 sequence (P00533 25-1210): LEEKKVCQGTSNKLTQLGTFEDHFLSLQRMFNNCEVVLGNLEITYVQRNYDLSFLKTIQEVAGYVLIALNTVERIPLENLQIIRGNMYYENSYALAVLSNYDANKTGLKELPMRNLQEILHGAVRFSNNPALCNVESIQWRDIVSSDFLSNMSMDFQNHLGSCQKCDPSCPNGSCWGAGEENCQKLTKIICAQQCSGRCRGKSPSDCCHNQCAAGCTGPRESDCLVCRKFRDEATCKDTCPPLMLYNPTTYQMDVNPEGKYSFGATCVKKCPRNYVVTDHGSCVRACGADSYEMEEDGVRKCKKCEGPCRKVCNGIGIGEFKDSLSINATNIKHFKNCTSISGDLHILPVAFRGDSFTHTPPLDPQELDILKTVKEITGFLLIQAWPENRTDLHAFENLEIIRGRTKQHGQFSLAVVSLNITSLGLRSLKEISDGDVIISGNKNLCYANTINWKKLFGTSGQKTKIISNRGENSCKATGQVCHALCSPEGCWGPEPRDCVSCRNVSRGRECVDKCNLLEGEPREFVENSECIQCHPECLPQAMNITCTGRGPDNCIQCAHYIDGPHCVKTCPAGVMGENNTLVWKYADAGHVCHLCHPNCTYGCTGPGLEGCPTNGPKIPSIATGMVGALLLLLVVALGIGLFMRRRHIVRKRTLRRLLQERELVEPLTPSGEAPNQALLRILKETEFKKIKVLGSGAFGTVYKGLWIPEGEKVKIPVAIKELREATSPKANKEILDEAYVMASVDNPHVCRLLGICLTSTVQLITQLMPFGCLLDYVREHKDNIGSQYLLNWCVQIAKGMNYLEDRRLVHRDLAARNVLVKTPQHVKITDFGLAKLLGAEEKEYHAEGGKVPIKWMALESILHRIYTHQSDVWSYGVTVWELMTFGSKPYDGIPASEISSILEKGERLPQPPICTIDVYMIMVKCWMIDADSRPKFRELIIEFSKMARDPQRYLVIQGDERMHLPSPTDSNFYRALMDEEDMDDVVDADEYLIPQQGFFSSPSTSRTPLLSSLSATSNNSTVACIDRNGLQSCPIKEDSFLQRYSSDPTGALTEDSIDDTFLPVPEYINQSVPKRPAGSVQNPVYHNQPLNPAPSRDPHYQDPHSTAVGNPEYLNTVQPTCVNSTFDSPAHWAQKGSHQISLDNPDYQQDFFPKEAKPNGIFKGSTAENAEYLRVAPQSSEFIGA
How it was run: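 Receptor autophosphorylation was read by ELISA: anti-phosphotyrosine serum and an HRP-linked secondary with ABTS substrate, absorbance at 410 nm (reference 630 nm). The reaction ran 5 min with 3 µM ATP and 5 mM MnCl2 and was quenched by 20 mM EDTA. Compounds were first incubated 30 min with antibody-captured EGFR from A431 cell lysate.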

PDGF-R = PDGF-R (Homo sapiens, UniProt P09619); experiment: PDGF-R ELISA; format: cell-based
Chain of PDGF-R (P09619 33-1106, species assumed): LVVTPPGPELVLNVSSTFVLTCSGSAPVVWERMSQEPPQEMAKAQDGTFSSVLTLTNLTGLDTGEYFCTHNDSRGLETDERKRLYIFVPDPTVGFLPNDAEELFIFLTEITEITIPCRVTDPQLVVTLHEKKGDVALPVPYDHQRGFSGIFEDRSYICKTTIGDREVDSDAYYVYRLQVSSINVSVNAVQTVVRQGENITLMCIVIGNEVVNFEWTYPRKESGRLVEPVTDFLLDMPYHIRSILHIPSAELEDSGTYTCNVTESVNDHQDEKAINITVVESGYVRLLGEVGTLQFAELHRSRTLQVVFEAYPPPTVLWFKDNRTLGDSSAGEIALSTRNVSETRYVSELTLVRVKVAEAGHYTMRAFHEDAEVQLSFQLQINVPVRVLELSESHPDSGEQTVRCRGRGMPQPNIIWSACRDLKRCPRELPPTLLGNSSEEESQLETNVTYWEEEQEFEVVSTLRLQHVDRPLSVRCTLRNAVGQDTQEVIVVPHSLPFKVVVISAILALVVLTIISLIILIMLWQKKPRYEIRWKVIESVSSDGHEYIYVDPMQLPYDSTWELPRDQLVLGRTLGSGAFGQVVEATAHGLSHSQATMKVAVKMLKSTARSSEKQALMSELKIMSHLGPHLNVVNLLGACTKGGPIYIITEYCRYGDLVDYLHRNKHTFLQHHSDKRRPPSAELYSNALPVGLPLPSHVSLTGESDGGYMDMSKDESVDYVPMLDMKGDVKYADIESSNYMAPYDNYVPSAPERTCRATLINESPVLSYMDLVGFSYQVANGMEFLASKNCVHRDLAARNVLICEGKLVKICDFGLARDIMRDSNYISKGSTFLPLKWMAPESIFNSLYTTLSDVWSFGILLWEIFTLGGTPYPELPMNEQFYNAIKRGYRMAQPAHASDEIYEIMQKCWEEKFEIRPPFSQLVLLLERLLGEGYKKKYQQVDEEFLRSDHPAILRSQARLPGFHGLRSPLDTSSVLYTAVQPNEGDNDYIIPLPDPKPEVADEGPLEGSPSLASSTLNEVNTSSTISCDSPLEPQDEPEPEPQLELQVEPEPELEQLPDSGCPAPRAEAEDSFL
Description: A PDGF-R ELISA is described in International Patent Publication No. WO 96/40116, published December 19, 1996 by Tang et al.

O=C1Nc2c(Br)cc(Br)cc2C1=Cc1ccc[nH]1 [10717/A09]
Met Kinase % Inhibition (MET): 9.4%
Biochem EGFR %Inhibition (EGFR): 37.7%

CCOC(=O)CCc1c(C(=O)OCC)[nH]c(C=C2C(=O)Nc3ccc(Br)c(C)c32)c1CC(=O)OCC [10718/C05]
Met Kinase % Inhibition (MET): 8.7%
Biochem EGFR %Inhibition (EGFR): 10.9%

CCOC(=O)c1cc(C=C2C(=O)Nc3ccc(Br)c(C)c32)oc1C [10718/C06]
Met Kinase % Inhibition (MET): 3.9%
Biochem EGFR %Inhibition (EGFR): 5.6%

COC(=O)c1[nH]c(C)c(C=C2C(=O)Nc3ccc(Br)c(C)c32)c1C(=O)OC [10718/C07]
Met Kinase % Inhibition (MET): 29.6%
Biochem EGFR %Inhibition (EGFR): -4.9%

Cc1c(Br)ccc2c1C(=Cc1ccc(Cl)c([N+](=O)[O-])c1)C(=O)N2 [10718/C08]
Met Kinase % Inhibition (MET): 22.7%
Biochem EGFR %Inhibition (EGFR): 13.1%

Cc1c(O)ccc(C=C2C(=O)Nc3ccc(Br)c(C)c32)c1O [10718/C09]
Met Kinase % Inhibition (MET): 38.2%
Biochem EGFR %Inhibition (EGFR): 26.5%

O=C1Nc2ccc(S(=O)(=O)N3CCOCC3)cc2C1=Cc1coc2c(Br)cc(Br)cc2c1=O [10730/F09]
Met Kinase % Inhibition (MET): 71.1%
Biochem EGFR %Inhibition (EGFR): 17.9%
PDGF Kinase %Inhibition (PDGF-R): 13.3%

COC1CC(C=C2C(=O)Nc3ccc(S(=O)(=O)N4CCOCC4)cc32)C(OC)O1 (stereo not drawn) [10730/F10]
Met Kinase % Inhibition (MET): 42.1%
Biochem EGFR %Inhibition (EGFR): 6.2%
PDGF Kinase %Inhibition (PDGF-R): 1.9%

Cc1cc(C=C2C(=O)Nc3ccc(S(=O)(=O)N4CCOCC4)cc32)oc1C [10730/F11]
Met Kinase % Inhibition (MET): 53.6%
Biochem EGFR %Inhibition (EGFR): -24.1%
PDGF Kinase %Inhibition (PDGF-R): 4.5%

COc1ccc(C=C2C(=O)Nc3ccc(CCCl)cc32)c(OC)c1OC [10730/G02]
Met Kinase % Inhibition (MET): 41.1%
Biochem EGFR %Inhibition (EGFR): 20.8%
PDGF Kinase %Inhibition (PDGF-R): 18.1%

COc1cc(OC)c(OC)cc1C=C1C(=O)Nc2ccc(CCCl)cc21 [10730/G03]
Met Kinase % Inhibition (MET): 43.2%
Biochem EGFR %Inhibition (EGFR): -6.9%
PDGF Kinase %Inhibition (PDGF-R): 44.0%

COc1cc(C=C2C(=O)Nc3ccc(CCCl)cc32)cc(OC)c1OC [10730/G04]
Met Kinase % Inhibition (MET): 47.7%
Biochem EGFR %Inhibition (EGFR): -6.7%
PDGF Kinase %Inhibition (PDGF-R): 21.6%

CC(=O)n1cc(C=C2C(=O)Nc3ccc(CCCl)cc32)c2ccccc21 [10730/G05]
Met Kinase % Inhibition (MET): 35.8%
Biochem EGFR %Inhibition (EGFR): -18.2%
PDGF Kinase %Inhibition (PDGF-R): 65.0%

O=C1Nc2ccc(CCCl)cc2C1=Cc1ccc(-c2ccccc2Cl)o1 [10730/G07]
Met Kinase % Inhibition (MET): 26.2%
Biochem EGFR %Inhibition (EGFR): 6.4%
PDGF Kinase %Inhibition (PDGF-R): 19.9%

O=C1Nc2ccc(CCCl)cc2C1=Cc1cc2ccccc2nc1Cl [10730/G08]
Met Kinase % Inhibition (MET): 16.6%
Biochem EGFR %Inhibition (EGFR): 9.5%
PDGF Kinase %Inhibition (PDGF-R): 20.3%

COC1CC(C=C2C(=O)Nc3ccc(CCCl)cc32)C(OC)O1 (stereo not drawn) [10730/G10]
Met Kinase % Inhibition (MET): 42.1%
Biochem EGFR %Inhibition (EGFR): 3.1%
PDGF Kinase %Inhibition (PDGF-R): 22.1%

Cc1cc(C=C2C(=O)Nc3ccc(CCCl)cc32)oc1C [10730/G11]
Met Kinase % Inhibition (MET): 46.1%
Biochem EGFR %Inhibition (EGFR): 26.2%
PDGF Kinase %Inhibition (PDGF-R): -0.3%

CCn1c2ccccc2c2cc(C=C3C(=O)Nc4c(Br)cc(Br)cc43)ccc21 [10731/A02]
Met Kinase % Inhibition (MET): 23.9%
Biochem EGFR %Inhibition (EGFR): 14.8%
PDGF Kinase %Inhibition (PDGF-R): -3.9%

Cc1cc2occ(C=C3C(=O)Nc4c(Br)cc(Br)cc43)c(=O)c2cc1C [10731/A03]
Met Kinase % Inhibition (MET): 54.8%
Biochem EGFR %Inhibition (EGFR): 10.8%
PDGF Kinase %Inhibition (PDGF-R): 7.5%

C=C(C)C1CC=C(C=C2C(=O)Nc3c(Br)cc(Br)cc32)CC1 (stereo not drawn) [10731/A04]
Met Kinase % Inhibition (MET): 43.6%
Biochem EGFR %Inhibition (EGFR): 20.2%
PDGF Kinase %Inhibition (PDGF-R): 5.1%

CC(C)c1ccc2occ(C=C3C(=O)Nc4c(Br)cc(Br)cc43)c(=O)c2c1 [10731/A05]
Met Kinase % Inhibition (MET): 85.8%
Biochem EGFR %Inhibition (EGFR): 34.3%
PDGF Kinase %Inhibition (PDGF-R): 14.1%

Cc1ccc2occ(C=C3C(=O)Nc4c(Br)cc(Br)cc43)c(=O)c2c1 [10731/A06]
Met Kinase % Inhibition (MET): 53.0%
Biochem EGFR %Inhibition (EGFR): 30.1%
PDGF Kinase %Inhibition (PDGF-R): 1.3%

O=C1Nc2c(Br)cc(Br)cc2C1=Cc1coc2ccc([N+](=O)[O-])cc2c1=O [10731/A07]
Met Kinase % Inhibition (MET): 49.5%
Biochem EGFR %Inhibition (EGFR): 39.4%
PDGF Kinase %Inhibition (PDGF-R): 4.6%

O=C1Nc2c(Br)cc(Br)cc2C1=Cc1c[nH]c(=O)[nH]c1=O [10731/A08]
Met Kinase % Inhibition (MET): 59.9%
Biochem EGFR %Inhibition (EGFR): 25.7%
PDGF Kinase %Inhibition (PDGF-R): -2.5%

COc1ccc2[nH]cc(C=C3C(=O)Nc4c(Br)cc(Br)cc43)c2c1 [10731/A09]
Met Kinase % Inhibition (MET): 46.7%
Biochem EGFR %Inhibition (EGFR): 21.9%
PDGF Kinase %Inhibition (PDGF-R): -14.4%

CN1C(=O)C(=C2C(=O)Nc3c(Br)cc(Br)cc32)c2ccccc21 [10731/A10]
Met Kinase % Inhibition (MET): 41.2%
Biochem EGFR %Inhibition (EGFR): 26.3%
PDGF Kinase %Inhibition (PDGF-R): -3.5%

CCn1c2ccccc2c2cc(C=C3C(=O)Nc4ccc(I)cc43)ccc21 [10731/B02]
Met Kinase % Inhibition (MET): 71.6%
Biochem EGFR %Inhibition (EGFR): 15.5%
PDGF Kinase %Inhibition (PDGF-R): 13.2%

Cc1cc2occ(C=C3C(=O)Nc4ccc(I)cc43)c(=O)c2cc1C [10731/B03]
Met Kinase % Inhibition (MET): 60.9%
Biochem EGFR %Inhibition (EGFR): 12.3%
PDGF Kinase %Inhibition (PDGF-R): 9.9%

C=C(C)C1CC=C(C=C2C(=O)Nc3ccc(I)cc32)CC1 (stereo not drawn) [10731/B04]
Met Kinase % Inhibition (MET): 71.0%
Biochem EGFR %Inhibition (EGFR): 31.3%
PDGF Kinase %Inhibition (PDGF-R): 0.3%

CC(C)c1ccc2occ(C=C3C(=O)Nc4ccc(I)cc43)c(=O)c2c1 [10731/B05]
Met Kinase % Inhibition (MET): 86.0%
Biochem EGFR %Inhibition (EGFR): 35.9%
PDGF Kinase %Inhibition (PDGF-R): 17.9%

Cc1ccc2occ(C=C3C(=O)Nc4ccc(I)cc43)c(=O)c2c1 [10731/B06]
Met Kinase % Inhibition (MET): 56.2%
Biochem EGFR %Inhibition (EGFR): 37.5%
PDGF Kinase %Inhibition (PDGF-R): 5.6%

O=C1Nc2ccc(I)cc2C1=Cc1coc2ccc([N+](=O)[O-])cc2c1=O [10731/B07]
Met Kinase % Inhibition (MET): 41.6%
Biochem EGFR %Inhibition (EGFR): 29.1%
PDGF Kinase %Inhibition (PDGF-R): 6.0%

O=C1Nc2ccc(I)cc2C1=Cc1c[nH]c(=O)[nH]c1=O [10731/B08]
Met Kinase % Inhibition (MET): 57.4%
Biochem EGFR %Inhibition (EGFR): 37.2%
PDGF Kinase %Inhibition (PDGF-R): -23.4%

COc1ccc2[nH]cc(C=C3C(=O)Nc4ccc(I)cc43)c2c1 [10731/B09]
Met Kinase % Inhibition (MET): 29.6%
Biochem EGFR %Inhibition (EGFR): 15.0%
PDGF Kinase %Inhibition (PDGF-R): 0.3%

CN1C(=O)C(=C2C(=O)Nc3ccc(I)cc32)c2ccccc21 [10731/B10]
Met Kinase % Inhibition (MET): 72.9%
Biochem EGFR %Inhibition (EGFR): 50.5%
PDGF Kinase %Inhibition (PDGF-R): 4.6%

CCn1c2ccccc2c2cc(C=C3C(=O)Nc4ccc(Br)c(C)c43)ccc21 [10731/C02]
Met Kinase % Inhibition (MET): 11.1%
Biochem EGFR %Inhibition (EGFR): -6.9%
PDGF Kinase %Inhibition (PDGF-R): -2.5%

Cc1cc2occ(C=C3C(=O)Nc4ccc(Br)c(C)c43)c(=O)c2cc1C [10731/C03]
Met Kinase % Inhibition (MET): 38.7%
Biochem EGFR %Inhibition (EGFR): 9.1%
PDGF Kinase %Inhibition (PDGF-R): 11.3%

C=C(C)C1CC=C(C=C2C(=O)Nc3ccc(Br)c(C)c32)CC1 (stereo not drawn) [10731/C04]
Met Kinase % Inhibition (MET): 32.5%
Biochem EGFR %Inhibition (EGFR): 31.0%
PDGF Kinase %Inhibition (PDGF-R): 15.1%

Cc1c(Br)ccc2c1C(=Cc1coc3ccc(C(C)C)cc3c1=O)C(=O)N2 [10731/C05]
Met Kinase % Inhibition (MET): 78.3%
Biochem EGFR %Inhibition (EGFR): 35.5%
PDGF Kinase %Inhibition (PDGF-R): 22.7%

Cc1ccc2occ(C=C3C(=O)Nc4ccc(Br)c(C)c43)c(=O)c2c1 [10731/C06]
Met Kinase % Inhibition (MET): 18.2%
Biochem EGFR %Inhibition (EGFR): 23.1%
PDGF Kinase %Inhibition (PDGF-R): 7.0%

Cc1c(Br)ccc2c1C(=Cc1coc3ccc([N+](=O)[O-])cc3c1=O)C(=O)N2 [10731/C07]
Met Kinase % Inhibition (MET): -11.6%
Biochem EGFR %Inhibition (EGFR): 35.5%
PDGF Kinase %Inhibition (PDGF-R): 31.3%

Cc1c(Br)ccc2c1C(=Cc1c[nH]c(=O)[nH]c1=O)C(=O)N2 [10731/C08]
Met Kinase % Inhibition (MET): 25.8%
Biochem EGFR %Inhibition (EGFR): 23.6%
PDGF Kinase %Inhibition (PDGF-R): -3.0%

COc1ccc2[nH]cc(C=C3C(=O)Nc4ccc(Br)c(C)c43)c2c1 [10731/C09]
Met Kinase % Inhibition (MET): 22.7%
Biochem EGFR %Inhibition (EGFR): 16.8%
PDGF Kinase %Inhibition (PDGF-R): -6.3%

Cc1c(Br)ccc2c1C(=C1C(=O)N(C)c3ccccc31)C(=O)N2 [10731/C10]
Met Kinase % Inhibition (MET): 23.3%
Biochem EGFR %Inhibition (EGFR): 20.9%
PDGF Kinase %Inhibition (PDGF-R): 6.5%

CCn1c2ccccc2c2cc(C=C3C(=O)Nc4ccc(S(=O)(=O)NC)cc43)ccc21 [10731/D02]
Met Kinase % Inhibition (MET): 8.7%
Biochem EGFR %Inhibition (EGFR): 4.9%
PDGF Kinase %Inhibition (PDGF-R): 17.9%

CNS(=O)(=O)c1ccc2c(c1)C(=Cc1coc3cc(C)c(C)cc3c1=O)C(=O)N2 [10731/D03]
Met Kinase % Inhibition (MET): 40.2%
Biochem EGFR %Inhibition (EGFR): 16.3%
PDGF Kinase %Inhibition (PDGF-R): 28.4%
